# Test results as given in ChEMBL document CHEMBL3352267, “The design and implementation of a generic lipopeptide scanning platform to enable the identification of 'locally acting' agonists for the apelin receptor” (Bioorg Med Chem Lett, 2014).
# Activity calls are given as the source filed them. The calls are words filed in the database; no cut-off is given here. Residues, ends and D or L forms follow the SMILES beside them. *: point of attachment. Palmitoyl = CCCCCCCCCCCCCCCC(=O)*
# Experiments:
# Type in all cases: functional, cell-based
# [1] = molecular target: Sphingosine 1-phosphate receptor Edg-5/Sphingosine 1-phosphate receptor Edg-3 (Homo sapiens) (UniProt O95136+Q99500); assay: Agonist activity at S1P2/3 receptor in HEK293 cells assessed as inhibition of forskolin-induced cAMP level after 1 hr by alphascreen immunoassay
# Apelin receptor = molecular target: T1, Apelin receptor (Homo sapiens, UniProt P35414); assay: Agonist activity at APJ receptor in HEK293 cells assessed as inhibition of forskolin-induced cAMP level incubated for 5 mins prior to forskolin challenge measured after 30 mins by TR-FRET assay
# T1 sequence (P35414 whole entry): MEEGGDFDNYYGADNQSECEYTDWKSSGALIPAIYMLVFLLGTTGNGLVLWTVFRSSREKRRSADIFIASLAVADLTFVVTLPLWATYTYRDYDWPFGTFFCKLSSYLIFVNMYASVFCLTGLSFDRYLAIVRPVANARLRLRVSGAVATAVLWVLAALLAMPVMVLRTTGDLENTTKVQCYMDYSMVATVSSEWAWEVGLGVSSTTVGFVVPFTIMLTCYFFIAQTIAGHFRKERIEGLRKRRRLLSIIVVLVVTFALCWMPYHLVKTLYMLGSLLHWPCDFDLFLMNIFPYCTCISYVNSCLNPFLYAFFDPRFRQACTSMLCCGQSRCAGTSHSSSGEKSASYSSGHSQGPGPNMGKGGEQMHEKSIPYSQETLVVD
# [2] = molecular target: T2, Apelin receptor (Homo sapiens) (UniProt P35414); assay: Agonist activity at APJ receptor in HEK293 cells assessed as inhibition of forskolin-induced cAMP level incubated for 5 mins prior to forskolin challenge measured after 30 mins by TR-FRET assay relative to [pyr1]-apelin-13
# T2 sequence (whole entry): T1 sequence (P35414 whole entry)
EC50 (Apelin receptor),%max [2],Structure (SMILES),Activity [1]
–,–,CCCCCCCCCCCCC/C=C/[C@@H](O)[C@@H](N)COP(=O)(O)O,Active
> 30000 nM,–,CCCCCCCCCCCCCCCC(=O)N1CCC[C@H]1C(=O)N[C@@H](CC(C)C)C(=O)N[C@@H](Cc1c[nH]c2ccccc12)C(=O)N[C@@H](C)C(=O)N[C@H](C(=O)N[C@@H](Cc1ccc(O)cc1)C(=O)N[C@H](C(=O)N[C@@H](Cc1ccc(O)cc1)C(=O)N[C@@H](CCCNC(=N)N)C(N)=O)[C@@H](C)O)[C@@H](C)O (Palmitoyl-PLWATYTYR-NH2),–
41.3 nM,45%,CCCCCCCCCCCCCCCC(=O)N[C@H](C(=O)N[C@@H](C)C(=O)N[C@@H](CC(C)C)C(=O)N1CCC[C@H]1C(=O)N[C@@H](CC(C)C)C(=O)N[C@@H](Cc1c[nH]c2ccccc12)C(=O)N[C@@H](C)C(=O)N[C@H](C(=O)N[C@@H](Cc1ccc(O)cc1)C(=O)N[C@H](C(=O)N[C@@H](Cc1ccc(O)cc1)C(=O)N[C@@H](CCCNC(=N)N)C(N)=O)[C@@H](C)O)[C@@H](C)O)C(C)C (Palmitoyl-VALPLWATYTYR-NH2),–
> 30000 nM,–,CCCCCCCCCCCCCCCC(=O)N[C@H](C(=O)N[C@H](C(=O)N[C@@H](C)C(=O)N1CCC[C@H]1C(=O)N[C@@H](CC(C)C)C(=O)N[C@@H](Cc1c[nH]c2ccccc12)C(=O)N[C@@H](C)C(=O)N[C@H](C(=O)N[C@@H](Cc1ccc(O)cc1)C(=O)N[C@H](C(=O)N[C@@H](Cc1ccc(O)cc1)C(=O)N[C@@H](CCCNC(=N)N)C(N)=O)[C@@H](C)O)[C@@H](C)O)[C@@H](C)O)C(C)C (Palmitoyl-VTAPLWATYTYR-NH2),–
> 30000 nM,–,CCCCCCCCCCCCCCCC(=O)N[C@H](C(=O)N[C@H](C(=O)N[C@@H](CC(C)C)C(=O)N[C@@H](C)C(=O)N[C@@H](CC(C)C)C(=O)N[C@@H](Cc1c[nH]c2ccccc12)C(=O)N[C@@H](C)C(=O)N[C@H](C(=O)N[C@@H](Cc1ccc(O)cc1)C(=O)N[C@H](C(=O)N[C@@H](Cc1ccc(O)cc1)C(=O)N[C@@H](CCCNC(=N)N)C(N)=O)[C@@H](C)O)[C@@H](C)O)[C@@H](C)O)C(C)C (Palmitoyl-VTLALWATYTYR-NH2),–
> 30000 nM,–,CCCCCCCCCCCCCCCC(=O)N[C@H](C(=O)N[C@H](C(=O)N[C@@H](CC(C)C)C(=O)N1CCC[C@H]1C(=O)N[C@@H](C)C(=O)N[C@@H](Cc1c[nH]c2ccccc12)C(=O)N[C@@H](C)C(=O)N[C@H](C(=O)N[C@@H](Cc1ccc(O)cc1)C(=O)N[C@H](C(=O)N[C@@H](Cc1ccc(O)cc1)C(=O)N[C@@H](CCCNC(=N)N)C(N)=O)[C@@H](C)O)[C@@H](C)O)[C@@H](C)O)C(C)C (Palmitoyl-VTLPAWATYTYR-NH2),–
> 30000 nM,–,CCCCCCCCCCCCCCCC(=O)N[C@H](C(=O)N[C@H](C(=O)N[C@@H](CC(C)C)C(=O)N1CCC[C@H]1C(=O)N[C@@H](CC(C)C)C(=O)N[C@@H](C)C(=O)N[C@@H](C)C(=O)N[C@H](C(=O)N[C@@H](Cc1ccc(O)cc1)C(=O)N[C@H](C(=O)N[C@@H](Cc1ccc(O)cc1)C(=O)N[C@@H](CCCNC(=N)N)C(N)=O)[C@@H](C)O)[C@@H](C)O)[C@@H](C)O)C(C)C (Palmitoyl-VTLPLAATYTYR-NH2),–
21.5 nM,53.6%,CCCCCCCCCCCCCCCC(=O)N[C@H](C(=O)N[C@H](C(=O)N[C@@H](CC(C)C)C(=O)N1CCC[C@H]1C(=O)N[C@@H](CC(C)C)C(=O)N[C@@H](Cc1c[nH]c2ccccc12)C(=O)N[C@@H](C)C(=O)N[C@@H](C)C(=O)N[C@@H](Cc1ccc(O)cc1)C(=O)N[C@H](C(=O)N[C@@H](Cc1ccc(O)cc1)C(=O)N[C@@H](CCCNC(=N)N)C(N)=O)[C@@H](C)O)[C@@H](C)O)C(C)C (Palmitoyl-VTLPLWAAYTYR-NH2),–
> 30000 nM,–,CCCCCCCCCCCCCCCC(=O)N[C@H](C(=O)N[C@H](C(=O)N[C@@H](CC(C)C)C(=O)N1CCC[C@H]1C(=O)N[C@@H](CC(C)C)C(=O)N[C@@H](Cc1c[nH]c2ccccc12)C(=O)N[C@@H](C)C(=O)N[C@H](C(N)=O)[C@@H](C)O)[C@@H](C)O)C(C)C (Palmitoyl-VTLPLWAT-NH2),–
95.7 nM,84.3%,CCCCCCCCCCCCCCCC(=O)N[C@H](C(=O)N[C@H](C(=O)N[C@@H](CC(C)C)C(=O)N1CCC[C@H]1C(=O)N[C@@H](CC(C)C)C(=O)N[C@@H](Cc1c[nH]c2ccccc12)C(=O)N[C@@H](C)C(=O)N[C@H](C(=O)N[C@@H](C)C(=O)N[C@H](C(=O)N[C@@H](Cc1ccc(O)cc1)C(=O)N[C@@H](CCCNC(=N)N)C(N)=O)[C@@H](C)O)[C@@H](C)O)[C@@H](C)O)C(C)C (Palmitoyl-VTLPLWATATYR-NH2),–
> 30000 nM,–,CCCCCCCCCCCCCCCC(=O)N[C@H](C(=O)N[C@H](C(=O)N[C@@H](CC(C)C)C(=O)N1CCC[C@H]1C(=O)N[C@@H](CC(C)C)C(=O)N[C@@H](Cc1c[nH]c2ccccc12)C(=O)N[C@@H](C)C(=O)N[C@H](C(=O)N[C@@H](Cc1ccc(O)cc1)C(=O)N[C@@H](C)C(=O)N[C@@H](Cc1ccc(O)cc1)C(=O)N[C@@H](CCCNC(=N)N)C(N)=O)[C@@H](C)O)[C@@H](C)O)C(C)C (Palmitoyl-VTLPLWATYAYR-NH2),–
2.7 nM,62.5%,CCCCCCCCCCCCCCCC(=O)N[C@H](C(=O)N[C@H](C(=O)N[C@@H](CC(C)C)C(=O)N1CCC[C@H]1C(=O)N[C@@H](CC(C)C)C(=O)N[C@@H](Cc1c[nH]c2ccccc12)C(=O)N[C@@H](C)C(=O)N[C@H](C(=O)N[C@@H](Cc1ccc(O)cc1)C(=O)N[C@H](C(=O)N[C@@H](C)C(=O)N[C@@H](CCCNC(=N)N)C(N)=O)[C@@H](C)O)[C@@H](C)O)[C@@H](C)O)C(C)C (Palmitoyl-VTLPLWATYTAR-NH2),–
